{"source": "PubChem BioAssay (NCI)", "note": "Values joined by “and” are separate entries in the source; they are usually repeats but may differ in a detail not shown here. Identical values can stand only once.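 Briefly, cells in 96-well plates were exposed to five compound concentrations for 48 h, and endpoints were estimated by linear interpolation. Abbreviation: GI50, concentration required for 50% inhibition of growth. At the TGI there is no net growth.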", "data": [{"tested_on": "NCI-H460 lung", "experiment": "NCI anticancer screen, dose series, 48 h", "units": {"TGI": "µM"}, "values": [{"smiles": "O=C(O)CNS(=O)(=O)c1ccc(NC(=O)c2ccc([N+](=O)[O-])cc2)cc1", "TGI": "> 100"}, {"smiles": "CCCCNC1CCCCC[C@H]1O", "note": "(some centres undefined)", "TGI": "> 100"}, {"smiles": "N#Cc1cc(-c2cc3ccccc3o2)oc1N", "GI50": "3.03 µM", "TGI": 10.6}, {"smiles": "Cc1cc(C(=O)Nc2ccc3cc(CN4CCOCC4)ccc3n2)c(C)n1-c1ccccc1", "GI50": "2.51 µM", "TGI": "> 52.1"}, {"smiles": "[N-]=[N+]=C1C(=O)NN=C1c1ccccc1", "TGI": "> 100"}, {"smiles": "COc1ccc2c3c([nH]c2c1[N+](=O)[O-])C(C)N(C)CC3", "note": "(centres undefined)", "TGI": "> 100"}, {"smiles": "CCOC(=O)N[C@@H]1C(CC(=O)OC)O[C@H]2OC(C)(C)O[C@H]21", "note": "(some centres undefined)", "TGI": "> 100"}, {"smiles": "CCCCCCCCCCCCCCCC(=O)OCC(C[As](=O)(O)O)OC(=O)CCCCCCCCCCCCCCC", "note": "(centres undefined)", "TGI": "> 100"}, {"smiles": "COc1cc(/C=C/c2ccc(OC)c(O)c2)cc(OC)c1", "TGI": 14.1}, {"smiles": "COc1ccc(C(=O)c2cc(C)c(OC)c(C)c2)cc1OC(=O)CCl", "GI50": "< 0.01 µM", "TGI": 18.5}, {"smiles": "O=C(Nc1ccccc1-c1nc2ccccc2[nH]c1=O)c1ccccc1", "TGI": 47.1}, {"smiles": "C=C(C)CCN[Si](c1ccccc1)(c1ccccc1)C(C)(C)C", "TGI": "> 100"}, {"smiles": "CC1=[N+]([O-])c2ccccc2C(=O)C1=O", "TGI": "> 100"}, {"smiles": "NC(=O)c1cc(Cl)ccc1NC(=O)/C=C/c1ccccc1", "GI50": "3.09 µM", "TGI": "> 100"}, {"smiles": "O=C1/C(=C(/c2ccccc2)N2CCOCC2)Cc2ccccc21", "GI50": "4.52 µM", "TGI": 18.6}, {"smiles": "CC1=CC(=O)C=CC1=O", "GI50": "32.8 µM and 22.3 µM", "TGI": 53.4}, {"smiles": "CCCC(CCC)NCC(O)c1cc(-c2ccc(C(F)(F)F)cc2)nc(C(F)(F)F)c1", "note": "(centres undefined)", "GI50": "1.77 µM", "TGI": 3.4}, {"smiles": "Cc1cc(C)c(NC(=O)c2sc3nc4c(cc3c2N)C(=O)CCC4)c(C)c1", "GI50": "1.56 µM", "TGI": 21.2}, {"smiles": "CN(C)CCNc1ccc(CO)c2oc3ccc(O)cc3c(=O)c12", "TGI": 17.4}, {"smiles": "Cc1ccc(NC(=O)c2cccc(C(C)(C)C#N)c2)cc1Nc1ccc2ncn(C)c(=O)c2c1", "GI50": "2.76 µM", "TGI": "> 100"}, {"smiles": "Cc1cc2ncnn2cc1Nc1ncc2c(n1)n(C1CCOCC1)c(=O)n2C", "GI50": "4.74 µM", "TGI": "> 100"}, {"smiles": "COc1ccc(C(=O)c2cc(C)c(OC)c(C)c2)c(OC)c1O", "GI50": "0.0713 µM", "TGI": 1.35}, {"smiles": "COCC[C@H]1CCC/C=C/[C@@H]2C[C@H](O)C[C@H]2[C@H](O)/C=C/C(=O)O1", "GI50": "0.39 µM", "TGI": "> 100"}, {"smiles": "CN(Cc1ccccc1)C(=O)c1ccccc1C(=O)O", "TGI": "> 100"}, {"smiles": "CNC(=S)/N=C(\\N)N(C)C", "TGI": "> 100"}, {"smiles": "CC(=O)C1Cn2c(nc3ccccc32)C[Se]1", "note": "(centres undefined)", "TGI": 16.8}, {"smiles": "Nc1ccccc1C#C/C=C\\C#Cc1ccccc1N", "GI50": "6.51 µM", "TGI": 80.4}, {"smiles": "COC(=O)Nc1nc2ccc(C3(c4ccc(F)cc4)OCCO3)cc2[nH]1", "GI50": "0.344 µM", "TGI": "> 36.8"}, {"smiles": "CN(C)CCC1(C2=CCCC2)CC/C(=C\\c2ccc(Cl)cc2)C1=O", "note": "(centres undefined)", "TGI": 26.9}, {"smiles": "CC1=CC(C)(C)N=C2SC(c3ccc(N)cc3)=NN12", "TGI": "> 100"}, {"smiles": "O=C(Nc1n[nH]c2cc(-c3ccccc3)ccc12)C1CC1", "GI50": "7.15 µM", "TGI": "> 25"}, {"smiles": "O=C1C2C3C=C4c5ccccc5N(c5ccccc5)C4(C2C(=O)N1c1ccc([N+](=O)[O-])cc1)[C@H]1C(=O)N(c2ccc([N+](=O)[O-])cc2)C(=O)[C@@H]31", "note": "(some centres undefined)", "TGI": "> 100"}]}, {"tested_on": "NCI-H226 lung", "experiment": "NCI anticancer screen, dose series, 48 h", "units": {"TGI": "µM", "GI50": "µM"}, "values": [{"smiles": "CCOC(=O)/C(C)=C(/O)C(=O)OCC", "TGI": "> 100"}, {"smiles": "O=C(O)CNS(=O)(=O)c1ccc(NC(=O)c2ccc([N+](=O)[O-])cc2)cc1", "TGI": "> 100"}, {"smiles": "CCCCNC1CCCCC[C@H]1O", "note": "(some centres undefined)", "TGI": "> 100"}, {"smiles": "N#Cc1cc(-c2cc3ccccc3o2)oc1N", "GI50": 3.12, "TGI": 13.4}, {"smiles": "Cc1cc(C(=O)Nc2ccc3cc(CN4CCOCC4)ccc3n2)c(C)n1-c1ccccc1", "GI50": 0.374, "TGI": 5.92}, {"smiles": "[N-]=[N+]=C1C(=O)NN=C1c1ccccc1", "TGI": "> 100"}, {"smiles": "COc1ccc2c3c([nH]c2c1[N+](=O)[O-])C(C)N(C)CC3", "note": "(centres undefined)", "TGI": "> 100"}, {"smiles": "CCOC(=O)N[C@@H]1C(CC(=O)OC)O[C@H]2OC(C)(C)O[C@H]21", "note": "(some centres undefined)", "TGI": "> 100"}, {"smiles": "CCCCCCCCCCCCCCCC(=O)OCC(C[As](=O)(O)O)OC(=O)CCCCCCCCCCCCCCC", "note": "(centres undefined)", "TGI": "> 100"}, {"smiles": "COc1cc(/C=C/c2ccc(OC)c(O)c2)cc(OC)c1", "TGI": 16.7}]}]}
